Results published in US9833497B2, “Human originated EGF domain proteins and use of the same” (CHENGDU SOURCEBIO LIMITED-LIABILITY COMPANY, priority 2013, dated 2017).

Tests used:
Format in all cases: cell-based
E. coli DH5α = assay: Antibacterial activity: MIC and growth curve against E. coli DH5α in 96-well plate; settings: minimal inhibitory concentration against E. coli DH5α; 96-well plate, 5×10^5 CFU/mL, 37° C., judged after 8 h
How it was run: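 Log-phase bacteria (OD600 ~0.5) resuspended in LB at 5×10^5 CFU/mL, exposed to recombinant protein at 50, 25, 12.5 μg/mL final in triplicate, 37 °C shaking at 175 rpm. OD600 read every 30 min; MIC is lowest concentration showing no growth.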

E. coli BL21 = assay: MIC against Gram-negative bacteria: E. coli BL21; settings: E. coli BL21, 5×10^5 CFU/mL
How it was run: (§1)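 LB broth cultures at McFarland 0.5, spun down, resuspended, diluted to 5×10^5 CFU/mL final. Two-fold serial dilutions of purified human EGF domain proteins, triplicate. 37° C, 175 rpm shaking. Endpoint: no visible growth.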

Pseudomonas aeruginosa = assay: MIC against Gram-negative bacteria: Pseudomonas aeruginosa; settings: 5×10^5 CFU/mL
How it was run: as §1

Klebsiella pneumonia = assay: MIC against Gram-negative bacteria: Klebsiella pneumonia; settings: 5×10^5 CFU/mL
How it was run: as §1

Enterobacter cloacae = assay: MIC against Gram-negative bacteria: Enterobacter cloacae; settings: 5×10^5 CFU/mL
How it was run: as §1

Aeromonas hydrophila = assay: MIC against Gram-negative bacteria: Aeromonas hydrophila; settings: 5×10^5 CFU/mL
How it was run: as §1

Citrobacter diversus = assay: MIC against Gram-negative bacteria: Citrobacter diversus; settings: 5×10^5 CFU/mL
How it was run: as §1

Moraxella catarrhalis = assay: MIC against Gram-negative bacteria: Moraxella catarrhalis; settings: 5×10^5 CFU/mL
How it was run: as §1

Proteus mirabilis = assay: MIC against Gram-negative bacteria: Proteus mirabilis; settings: 5×10^5 CFU/mL
How it was run: as §1

Proteus vulgaris = assay: MIC against Gram-negative bacteria: Proteus vulgaris; settings: 5×10^5 CFU/mL
How it was run: as §1

Serratia marcescens = assay: MIC against Gram-negative bacteria: Serratia marcescens; settings: 5×10^5 CFU/mL
How it was run: as §1

[1] = Pseudomonas aeruginosa, 10 h cultivation at 37° C.
[2] = Klebsiella pneumonia, 10 h cultivation at 37° C.
[3] = Enterobacter cloacae, 10 h cultivation at 37° C.
[4] = Aeromonas hydrophila, 10 h cultivation at 37° C.
[5] = Citrobacter diversus, 10 h cultivation at 37° C.
[6] = Moraxella catarrhalis, 10 h cultivation at 37° C.
[7] = Proteus mirabilis, 10 h cultivation at 37° C.
[8] = Proteus vulgaris, 10 h cultivation at 37° C.
[9] = Serratia marcescens, 10 h cultivation at 37° C.
[10] = P. aeruginosa, 10 h cultivation at 37° C.
[11] = K. pneumonia, 10 h cultivation at 37° C.
[12] = E. cloacae, 10 h cultivation at 37° C.
[13] = A. hydrophila, 10 h cultivation at 37° C.
[14] = C. diversus, 10 h cultivation at 37° C.
[15] = M. catarrhalis, 10 h cultivation at 37° C.
[16] = P. mirabilis, 10 h cultivation at 37° C.
[17] = P. vulgaris, 10 h cultivation at 37° C.
[18] = S. marcescens, 10 h cultivation at 37° C.

| Substance | MIC (E. coli DH5α) | MIC against E. coli BL21 (E. coli BL21; 10 h cultivation at 37° C.) | MIC against P. aeruginosa (Pseudomonas aeruginosa; [1]) | MIC against K. pneumonia (Klebsiella pneumonia; [2]) | MIC against E. cloacae (Enterobacter cloacae; [3]) | MIC against A. hydrophila (Aeromonas hydrophila; [4]) | MIC against C. diversus (Citrobacter diversus; [5]) | MIC against M. catarrhalis (Moraxella catarrhalis; [6]) | MIC against P. mirabilis (Proteus mirabilis; [7]) | MIC against P. vulgaris (Proteus vulgaris; [8]) | MIC against S. marcescens (Serratia marcescens; [9]) | MIC (E. coli BL21; 10 h cultivation at 37° C.) | MIC (Pseudomonas aeruginosa; [10]) | MIC (Klebsiella pneumonia; [11]) | MIC (Enterobacter cloacae; [12]) | MIC (Aeromonas hydrophila; [13]) | MIC (Citrobacter diversus; [14]) | MIC (Moraxella catarrhalis; [15]) | MIC (Proteus mirabilis; [16]) | MIC (Proteus vulgaris; [17]) | further results |
| --- | --- | --- | --- | --- | --- | --- | --- | --- | --- | --- | --- | --- | --- | --- | --- | --- | --- | --- | --- | --- | --- |
| PRT1357 (GQHSCPSDCNNLGQCVSGRCICNEGYSGEDCS; listed as Homo sapiens) | 50 µg/mL | 12.5 µg/mL | 25 µg/mL | 50 µg/mL | 25 µg/mL | 100 µg/mL | 50 µg/mL | 12.5 µg/mL | 12.5 µg/mL | 50 µg/mL | 12.5 µg/mL |  |  |  |  |  |  |  |  |  |  |
| PRT216 (DIDECTAGTHNCRADQVCINLRGSFACQCPPGYQKRGEQCV; listed as Homo sapiens) | 12.5 µg/mL |  |  |  |  |  |  |  |  |  |  |  |  |  |  |  |  |  |  |  | MIC (μg/mL) E. coli BL21 (E. coli BL21; 10 h cultivation at 37° C.): 12.5 µg/mL; MIC (μg/mL) P. aeruginosa (Pseudomonas aeruginosa; [10]): 12.5 µg/mL; MIC (μg/mL) K. pneumonia (Klebsiella pneumonia; [11]): 50 µg/mL; MIC (μg/mL) E. cloacae (Enterobacter cloacae; [12]): 12.5 µg/mL; MIC (μg/mL) A. hydrophila (Aeromonas hydrophila; [13]): 50 µg/mL; MIC (μg/mL) C. diversus (Citrobacter diversus; [14]): 12.5 µg/mL; MIC (μg/mL) M. catarrhalis (Moraxella catarrhalis; [15]): 50 µg/mL; MIC (μg/mL) P. mirabilis (Proteus mirabilis; [16]): 25 µg/mL; MIC (μg/mL) P. vulgaris (Proteus vulgaris; [17]): 12.5 µg/mL; MIC (μg/mL) S. marcescens (Serratia marcescens; [18]): 25 µg/mL |
| PRT1396 (LGADCAKAACPVLCSGNGQYSKGTCQCYSGWKGAECD; listed as Homo sapiens) | 12.5 µg/mL | 12.5 µg/mL | 12.5 µg/mL | 12.5 µg/mL | 25 µg/mL | 25 µg/mL | 12.5 µg/mL | 25 µg/mL | 12.5 µg/mL | 25 µg/mL | 12.5 µg/mL |  |  |  |  |  |  |  |  |  |  |
| PRT432 (DVDECATDSHQCNPTQICINTEGGYTCSCTDGYWLLEGQCL; listed as Homo sapiens) | 25 µg/mL |  |  |  |  |  |  |  |  |  |  | 50 µg/mL | 25 µg/mL | 12.5 µg/mL | 25 µg/mL | 50 µg/mL | 25 µg/mL | 12.5 µg/mL | 25 µg/mL | 50 µg/mL | MIC (Serratia marcescens; [18]): 25 µg/mL |
| PRT443 (DIDECENTDACQHECKNTFGSYQCICPPGYQLTHNGKTCQ; listed as Homo sapiens) | 12.5 µg/mL |  |  |  |  |  |  |  |  |  |  | 25 µg/mL | 12.5 µg/mL | 12.5 µg/mL | 12.5 µg/mL | 12.5 µg/mL | 25 µg/mL | 12.5 µg/mL | 25 µg/mL | 12.5 µg/mL | MIC (Serratia marcescens; [18]): 50 µg/mL |
| PRT1495 (KANCSTTCFNGGTCFYPGKCICPPGLEGE; listed as Homo sapiens) | 25 µg/mL |  |  |  |  |  |  |  |  |  |  |  |  |  |  |  |  |  |  |  | MIC (μg/mL) E. coli BL21 (E. coli BL21; 96-well plate, 37° C., 10 h): 12.5 µg/mL; MIC (μg/mL) P. aeruginosa (Pseudomonas aeruginosa; Pseudomonas aeruginosa, 96-well plate, 37° C., 10 h): 25 µg/mL; MIC (μg/mL) K. pneumonia (Klebsiella pneumonia; Klebsiella pneumonia, 96-well plate, 37° C., 10 h): 25 µg/mL; MIC (μg/mL) E. cloacae (Enterobacter cloacae; Enterobacter cloacae, 96-well plate, 37° C., 10 h): 12.5 µg/mL; MIC (μg/mL) A. hydrophila (Aeromonas hydrophila; Aeromonas hydrophila, 96-well plate, 37° C., 10 h): 12.5 µg/mL; MIC (μg/mL) C. diversus (Citrobacter diversus; Citrobacter diversus, 96-well plate, 37° C., 10 h): 50 µg/mL; MIC (μg/mL) M. catarrhalis (Moraxella catarrhalis; Moraxella catarrhalis, 96-well plate, 37° C., 10 h): 50 µg/mL; MIC (μg/mL) P. mirabilis (Proteus mirabilis; Proteus mirabilis, 96-well plate, 37° C., 10 h): 50 µg/mL; MIC (μg/mL) P. vulgaris (Proteus vulgaris; Proteus vulgaris, 96-well plate, 37° C., 10 h): 25 µg/mL; MIC (μg/mL) S. marcescens (Serratia marcescens; Serratia marcescens, 96-well plate, 37° C., 10 h): 25 µg/mL |
